Assay results as given in patent publication US7592374B2, “Insecticidal nitromethylene compounds” (Crompton Corporation, priority 2005, dated 2009).

Tests used:
Type in all cases: in vivo
[1] = tested on: Helicoverpa virescens; experiment: Tobacco budworm test (TB); conditions: Heliothis virescens, 336 h; 0.2 mL of 3000 ppm stock solution on diet cell surface; second instar larva; after 14 days; corrected by Abbott's formula; read-out: Percent Control TB (tobacco budworm)
Protocol: In the following examples, a stock solution for the compounds of the present invention was prepared at 3000 ppm by dissolving 0.24 gram of each compound to be tested in eight mL of acetone and adding 72 mL of distilled water plus three drops of ethoxylated sorbitan monolaurate, a wetting agent. […] For each example that follows, the stock solution was used and the specificized dilutions made. All the tests discussed below, which involved treatment with compounds of this invention, were always repeated with controls, in which the active compound was not provided, to permit a comparison upon which the percent control was calculated.
For each compound tested, 0.2 mL of the stock solution prepared asdescribed above, was pipetted onto the surface of each of five diet cells, allowed to spread over the surfaces and air dried for two hours. Then a second instar Helicoverpa virescens larva was introduced into each cell. After 14 days, the number of living larvae was determined for each treatment and percent control, corrected by Abbott's formula, was calculated.

[2] = tested on: Tetranychus urticae Koch; experiment: Mite ovicide test (MIOV); conditions: 216 h, 1000 ppm spray to run off on cowpea leaves, unhatched eggs examined nine days following treatment, read-out: Percent Control MIOV (mite ovicide)
Protocol: In the following examples, a stock solution for the compounds of the present invention was prepared at 3000 ppm by dissolving 0.24 gram of each compound to be tested in eight mL of acetone and adding 72 mL of distilled water plus three drops of ethoxylated sorbitan monolaurate, a wetting agent. […] For each example that follows, the stock solution was used and the specificized dilutions made. All the tests discussed below, which involved treatment with compounds of this invention, were always repeated with controls, in which the active compound was not provided, to permit a comparison upon which the percent control was calculated. One day before treatment of cowpea primary leaves with the test solutions, a “Figure 8” configuration of tree tanglefoot was applied to each of two cowpea primary leaves, one from each of two plants in a pot. The circle nearer the stem was designated for the mite ovicide test and the circle further from the stem was designated for the mite adulticide test. Groups of adult mites (Tetranychus urticae Koch) were transferred into ovicide circles one day before treatment and the females were allowed to deposit eggs until one hour before treatment, at which point all the adults were removed. The plants were then sprayed to run off with a 1000 ppm of solution diluted from the 3000 ppm stock solution. Nine days following treatment the ovicide rings were examined for unhatched eggs and living immature mites. The percent control was estimated based on the number of unhatched eggs.

[3] = tested on: Tetranychus urticae Koch; experiment: Mite adulticide test (MI); conditions: 120 h, 1000 ppm spray to run off on cowpea leaves, adult mites placed 1 day after treatment, live mites counted five days later, read-out: Percent Control MI (mite adulticide)
Protocol: In the following examples, a stock solution for the compounds of the present invention was prepared at 3000 ppm by dissolving 0.24 gram of each compound to be tested in eight mL of acetone and adding 72 mL of distilled water plus three drops of ethoxylated sorbitan monolaurate, a wetting agent. […] For each example that follows, the stock solution was used and the specificized dilutions made. All the tests discussed below, which involved treatment with compounds of this invention, were always repeated with controls, in which the active compound was not provided, to permit a comparison upon which the percent control was calculated. One day before treatment of cowpea primary leaves with the test solutions, a “Figure 8” configuration of tree tanglefoot was applied to each of two cowpea primary leaves, one from each of two plants in a pot. The circle nearer the stem was designated for the mite ovicide test and the circle further from the stem was designated for the mite adulticide test. Groups of adult mites (Tetranychus urticae Koch) were transferred into ovicide circles one day before treatment and the females were allowed to deposit eggs until one hour before treatment, at which point all the adults were removed. The plants were then sprayed to run off with a 1000 ppm of solution diluted from the 3000 ppm stock solution. One day following treatment of the plants with the test solution, groups of approximately 25 adult mites were transferred into the adulticide rings. Five days later, these rings were examined for live mites remaining on the leaves. The percent control was estimated based on the number of mites surviving on the control plants.

SMILES	pest or weed control at 3000 µg/mL [1] [%]	pest or weed control at 1000 ppm [2] [%]	pest or weed control at 1000 ppm [3] [%]
CC/C(=N\Nc1cc(-c2ccccc2)ccc1OC)[N+](=O)[O-] [Compound 1, Propanal, 1-nitro, (4-methoxy-[1,1′-biphenyl]-3-yl)hydrazone]	64	100	100
COc1ccc(-c2ccccc2)cc1N/N=C/[N+](=O)[O-] [Compound 2]	100	0	0
CCC/C(=N\Nc1cc(-c2ccccc2)ccc1OC)[N+](=O)[O-] [Compound 3]	0	100	100
COc1ccc(-c2ccccc2)cc1N/N=C(/C(C)C)[N+](=O)[O-] [Compound 4]	0	0	100
CC/C(=N\Nc1cccc(-c2ccccc2)c1)[N+](=O)[O-] [Compound 5]	0	0	100
CCCCCOc1ccc(-c2ccccc2)cc1N/N=C(/CC)[N+](=O)[O-] [Compound 6]	0	30	100
CC/C(=N/Nc1cc(-c2ccccc2)ccc1C)[N+](=O)[O-] [Compound 7]	0	70	100
CC(C)C/C(=N\Nc1cccc(-c2ccccc2)c1)[N+](=O)[O-] [Compound 8]	40	0	100
CC/C(=N/Nc1cc(OC)ccc1-c1ccccc1)[N+](=O)[O-] [Compound 9]	14	70	70
C/C(=N\Nc1ccc2c(c1)Cc1ccccc1-2)[N+](=O)[O-] [Compound 10]	0	0	0
CC/C(=N\Nc1ccc2c(c1)c1ccccc1n2CC)[N+](=O)[O-] [Compound 11]	57	30	30
CC/C(=N/Nc1ccc(Cl)nc1)[N+](=O)[O-] [Compound 12]	100	70	100
